According to US20050169914A1, “Novel functions for decay accelerating factor (DAF) in inflammation” (priority 2003, published 2005):
Where no end group is shown, it is not given here. The star is where a group is joined. Biotin = O=C1N[C@H]2[C@H](CS[C@H]2CCCCC(=O)*)N1

Tests used:
[1] = test system: PMN transmigration across epithelial monolayer; test: Kinetic PMN transmigration assay with DAF mimetic peptides; type: cell-based, human; details: for rank order of potency in kinetic PMN transmigration assay: compared to no peptide controls
Experimental: Transmigration assay. PMN transmigration assays were performed as previously described (Nicholson-Weller et al., 1994, J. Lab. Clin. Med. 123: 485-91). All epithelial experiments were performed in the physiologically-relevant basolateral-to-apical direction (i.e. inverted monolayers), unless otherwise indicated, and all HMVEC transmigration studies were performed in the apical-to-basolateral direction. Briefly, PMN (1×10^6) were added to the upper chambers of transwell inserts in which T84, KB or Caco2 cell monolayers, as indicated, were plated on the opposing side. A chemotactic gradient was established by adding n-formyl-methionyl-leucyl-phenylalanine (fMLP) to the lower chambers (1 μM for Caco2 and T84 epithelia and 10 nM for KB cells and HMVEC). PMN transmigration was carried out at 37° C. for 1 hour with KB and HMVEC monolayers and 2 hrs for T84 monolayers. Transmigrated PMN were quantified by assaying for the PMN azurophilic marker myeloperoxidase (MPO), as previously described (Lisanti et al., 1990, J. Memb. Biol. 113: 155-167). Briefly, transmigrated PMN were lysed by the addition of Triton X-100 to a final concentration 0.5%. The samples were acidified with citrate buffer (final concentration 100 mM; pH 4.2). An aliquot of sample (70 μl) was added to an equal volume of ABTS solution (1 mM ABTS (2.2′-Azino-bis(3-ethylbenzo-thiazoline-6-sulfonic acid), 0.03% H2O2, 100 mM sodium citrate buffer; pH 4.2) in a 96-well plate. The resulting color was quantitated on a plate reader at 405 nm. For kinetic transmigration and post-transmigration adhesion assays, monolayers were removed at the desired time point and placed in a new 24-well plate with HBSS and spun at 50×g for 5 min to dislodge PMN adherent to the monolayer (Liu et al., 2001, J. Biol. Chem. 276: 40156-66). PMN were quantified by MPO assay as stated above. Where indicated, polyclonal DAF antisera (a kind gift from Dr. B. Paul Morgan, University of Wales) or control polyclonal platelet-endothelial cell adhesion (PE-CAM, a kind gift from Dr. Joyce Bischoff, Children's Hospital and Harvard Medical School) antisera were used to assess transmigration.
Phage panning of OE-1. The OE-1 binding epitope was analyzed using phage display (Burritt et al., 1998, J. Biol. Chem. 273:24847-52). Briefly, sepharose-coupled OE-1 was incubated with 20-μL aliquots of the random 9-mer LL9 phage library (˜5×10^10 phage) in 1 mL HBSS containing 0.1% bovine serum albumin (phage buffer) for 2 hours at 4° C. or for 1 hour at 20° C. in a 1.5-ml microcentrifuge tube as described previously (Mazzucchelli et al., 1999, Blood 93: 1738-48). Antibody complexes were then washed five times with phage buffer and bound phage were eluted for 5 minutes in 2 mL of 0.1M glycine (pH 2.2) followed by addition of phage buffer containing 0.5% Tween 20 to the remaining cell pellet. After neutralization with Tris buffer pH 8.1, the titer of phage was determined in each fraction by plaque assay according to standard procedures. Phage elutes were then amplified in “starved” K91 E. coli on solid LB agar containing 75 μg/mL kanamycin, purified by precipitation with polyethylene glycol, and resuspended in 600 μL NaCl/HEPES buffer. An aliquot (20 μL) of purified phage was subsequently re-applied to a new aliquot of sepharose-coupled OE-1 for a total of three affinity purification and two amplification steps. Individual phage clones were then isolated, amplified, and the random peptide sequences were deduced after sequencing the unique nucleotide region of the pIII protein. As a control for OE-1-specific selection, parallel phage affinity purification steps were carried out in a 1.5-mL microcentrifuge tube in the absence of OE-1, and a sample of the recovered phage was analyzed by sequencing of the DNA insert. […]

[2] = test system: surface of intact PMN; test: Binding of biotinylated peptide to intact PMN (rhodamine-streptavidin fluorescence); parameters: species or system human; details: peptide 10 μg/ml, 4° C., 1 hr
Experimental: In subsets of experiments, peptides were biotinylated (sulfo-NHS-Biotin, Pierce, Rockford, Ill.), purified by reversed phase HPLC, and tested for binding to PMN. Briefly, PMN (10^7 PMN in 1 ml) were incubated with biotinylated peptide DAF peptide or control peptide (each at 10 μg/ml) at 4° C. for 1 hr. PMN were washed three times in HBSS, and incubated with rhodamine-labeled steptavidin (Roche Diagnostics, Indianapolis, Ind.). Samples were aliquoted on a 96 well plate and fluorescence intensity (excitation, 550 nm; emission, 580 nm), expressed as relative fluorescence units (RFU) was measured on a fluorescent plate reader (Cytofluor™2300, Millipore Inc., Bedford, Mass.).

[3] = test system: OE-1 mAb binding to intact epithelial cell surface protein; test: Peptide blocking of OE-1 binding, cell surface ELISA on intact T84 cells; details: concentration-dependent
[4] = test system: OE-1 mAb binding to denatured protein; test: Peptide blocking of OE-1 binding, western blot of T84 epithelial lysates; details: concentration-dependent
Experimental: Immunoblotting experiments. Indicated cells were grown to confluency on 100 mm plastic Petri dishes. The monolayers were lysed for 10 min in 1 ml lysis buffer (150 mM NaCl, 25 mM Tris, pH 8.0, 5 mM EDTA, 2% n-octylglucoside, and 10% mammalian tissue protease inhibitor cocktail; Sigma, St. Louis, Mo.), scraped and collected into microfuge tubes. After spinning at 14,000×g to remove cell debris, the pellet was discarded. Proteins were solublized in non-reducing Laemmli sample buffer and heated to 100° C. for 5 minutes. Samples were resolved on a 10% polyacrylamide gel and transferred to nitrocellulose membranes. The membranes were blocked 1 hr at room temperature in PBS supplemented with 0.2% Tween-20 (PBS-T) and 4% BSA. […] The wash was repeated and proteins were detected by enhanced chemiluminescence.
Phage panning of OE-1. The OE-1 binding epitope was analyzed using phage display (Burritt et al., 1998, J. Biol. Chem. 273:24847-52). […] After neutralization with Tris buffer pH 8.1, the titer of phage was determined in each fraction by plaque assay according to standard procedures. […] As a control for OE-1-specific selection, parallel phage affinity purification steps were carried out in a 1.5-mL microcentrifuge tube in the absence of OE-1, and a sample of the recovered phage was analyzed by sequencing of the DNA insert. […]

[5] = test system: surface expressed DAF; test: DAF suppression in Caco2 cells (immunoprecipitation of surface biotinylated protein); type: cell-based, human; details: Caco2, relative to oligonucleotide controls, n=3
Experimental: DAF suppression studies. Caco2 cells were chosen for these experiments because they are more easily transfected than T84 cells. Confluent Caco2 monolayers were dislodged from T175 flasks with trypsin. Cells were washed once in serum-free DMEM. To 100 μl serum free media, 10 μl DAF siRNA ribonucleotide (20 μM each of sense 5′-[…]dTdT-3′ (SEQ ID NO: 31) and antisense 3′-dTd[…]-5′ (SEQ ID NO: 32), synthesized by Xeragon, Inc., Germantown, Md.) or 10 μl phosphorothioate derivatives of DAF antisense oligonucleotide (20 μM; 5′-[…]-3′ (SEQ ID NO: 33), synthesized by Oligo's Etc., Wilsonville, Oreg.) was added. In both cases, a control oligonucleotide (5′-ATG GAG GGC GCC GGC-3′, SEQ ID NO: 34) was used in parallel. To these solutions 10 μl Superfect transfection reagent (Qiagen, Valencia, Calif.) was added. The tubes were vortexed and incubated at room temperature for 10 min to allow transfection complexes formation. Following this incubation, 400 μl of serum containing media was added to the complexes, followed by 800 μl of cell suspension. […]
As a third approach, antisense oligonucleotides and siRNA technologies were utilized to diminish surface expressed DAF and examined the kinetics of PMN migration across such monolayers of epithelia. […] In panels B and C, the influence of siRNA (diamonds), antisense oligonucleotide (squares) on the kinetics of transmigration was assessed. […]

[6] = test system: PMN transmigration across Caco2 monolayers; test: Kinetic PMN transmigration across DAF-depleted Caco2 monolayers; type: cell-based, human
Experimental: Transmigration assay. PMN transmigration assays were performed as previously described (Nicholson-Weller et al., 1994, J. Lab. Clin. Med. 123: 485-91). All epithelial experiments were performed in the physiologically-relevant basolateral-to-apical direction (i.e. inverted monolayers), unless otherwise indicated, and all HMVEC transmigration studies were performed in the apical-to-basolateral direction. Briefly, PMN (1×10^6) were added to the upper chambers of transwell inserts in which T84, KB or Caco2 cell monolayers, as indicated, were plated on the opposing side. […] Transmigrated PMN were quantified by assaying for the PMN azurophilic marker myeloperoxidase (MPO), as previously described (Lisanti et al., 1990, J. Memb. Biol. 113: 155-167). […] An aliquot of sample (70 μl) was added to an equal volume of ABTS solution (1 mM ABTS (2.2′-Azino-bis(3-ethylbenzo-thiazoline-6-sulfonic acid), 0.03% H2O2, 100 mM sodium citrate buffer; pH 4.2) in a 96-well plate. The resulting color was quantitated on a plate reader at 405 nm. For kinetic transmigration and post-transmigration adhesion assays, monolayers were removed at the desired time point and placed in a new 24-well plate with HBSS and spun at 50×g for 5 min to dislodge PMN adherent to the monolayer (Liu et al., 2001, J. Biol. Chem. 276: 40156-66). PMN were quantified by MPO assay as stated above. […]

AVAHWYRSG [Peptide 1]
rank order of potency in kinetic PMN transmigration assay ([1]; 1 mM final concentration): Wild-type>Peptide 2=Peptide 1>Peptide 3

Biotin-EVEHWYRSG
fluorescence intensity (binding to surface of intact PMN) [2]: 2,188±383 RFU

EVEHAYRSG [Peptide 2]
rank order of potency in kinetic PMN transmigration assay ([1]; 1 mM final concentration): Wild-type>Peptide 2=Peptide 1>Peptide 3

EVEHWARSG [Peptide 3]
rank order of potency in kinetic PMN transmigration assay ([1]; 1 mM final concentration): Wild-type>Peptide 2=Peptide 1>Peptide 3

EVEHWYASG [Peptide 4]
effect on PMN transmigration relative to no peptide controls ([1]; 1 mM final concentration): appeared to enhance PMN transmigration

EVEHWYRSG
blocking of OE-1 binding to intact epithelial cell surface protein [3]: blocked OE-1 binding
rank order of potency in kinetic PMN transmigration assay ([1]; 1 mM final concentration): Wild-type>Peptide 2=Peptide 1>Peptide 3
apical accumulation of PMN ([1]; PMN and epithelial pre-exposure to increasing peptide concentrations, p<0.025): increased apical accumulation of PMN
PMN transmigration ([1]; PMN and epithelial pre-exposure to increasing peptide concentrations, p<0.05): diminished PMN transmigration
blocking of OE-1 binding to denatured protein [4]: blocked OE-1 binding

SPLAQAVRSSSR [scrambled peptide, scrambled control peptide, reference compound]
blocking of OE-1 binding to intact epithelial cell surface protein [3]: but not a scrambled peptide

siRNA: DAF siRNA ribonucleotide, sense 5′-AAUUCCUGGCGAGAAGGACUCdTdT-3′, antisense 3′-dTdTUUAAGGACCGCUCUUCCUGAG-5′ (sense AAUUCCUGGCGAGAAGGACUCNN; antisense NNUUAAGGACCGCUCUUCCUGAG; chemistry not fully specified; one strand is listed 3' to 5')
decrease in surface expressed DAF [5]: 63±12%
PMN transmigration across treated cells ([6]; Caco2, relative to mock or oligonucleotide control, p<0.025): significantly diminished
apical PMN in DAF-depleted epithelia ([6]; Caco2, p<0.05 by ANOVA): significant increase over time
